# Active and inactive are the calls of the source. The rule behind the calls is not given here.
# Legend:
# HepG2 [1] = test: Compound concentration required to inhibit 90% of extracellular replicating HBV (Hepatitis B virus) virion in human hepatoma cell line 2.2.15; type: functional
# HepG2 [2] = test: Compound concentration required to inhibit 50% of extracellular replicating HBV (Hepatitis B virus) virion in human hepatoma cell line 2.2.15; type: functional, cell-based
# [3] = Compound concentration that cause 50% cytotoxicity was determined by neutral red uptake in 2.2.15 Cells; type: cell-based, HepG2 2.2.15; details: human
# [4] = Selectivity index (SI) is the ratio of CC50/EC90 for HBV virion; type: functional
# HepG2 [5] = test: Compound concentration required to inhibit 50% of intracellular replicating HBV (Hepatitis B virus) RI in human hepatoma cell line 2.2.15; type: functional, cell-based
# HepG2 [6] = test: Compound concentration required to inhibit 90% of intracellular replicating HBV (Hepatitis B virus) RI in human hepatoma cell line 2.2.15; type: functional
# MT4 [7] = test: Compound was evaluated for the inhibition of replication of HIV-1 in MT-4 (human T helper) cells up to 300 uM; Not active; type: functional, cell-based
# [8] = Selectivity index (SI) is the ratio of CC50/EC90 for HBV RI; type: functional
# MT4 [9] = test: Compound was evaluated for the inhibition of replication of HIV-1 in MT-4 (human T helper) cells up to 300 uM; not active; type: functional, cell-based
SMILES,EC90 (HepG2 [1]),EC50 (HepG2 [2]),EC50 (HepG2 [5]),EC90 (HepG2 [6]),CC50 [3],SI [4],Activity (MT4 [7]),SI [8],Activity (MT4 [9])
O=c1n([C@H]2CO[C@H](CO)O2)cc(F)c2nc(CO)cn12,> 105 µM,> 105 µM,,,1390 µM,,,,
CCOC(=O)c1cn2c(=O)n(C3CSC(CO)O3)ccc2n1 (stereo not given),> 90 µM,> 90 µM,,,> 90 µM,,,,
O=c1n(C2CSC(CO)O2)ccc2nc(CO)cn12 (stereo not given),276 µM,77.7 µM,,,456 µM,1.7,,,inactive
O=c1n([C@H]2CO[C@@H](CO)O2)cc(F)c2nc(CO)cn12,33.3 µM,15.1 µM,29.1 µM,66.6 µM,1060 µM,36,,16,
Nc1ccn([C@H]2CC[C@@H](CO)O2)c(=O)n1 [ZALCITABINE],6.9 µM,1.5 µM,3.2 µM,10 µM,233 µM,,,23,
O=c1n(C2CSC(CO)O2)ccc2nc(-c3ccc([N+](=O)[O-])cc3)cn12 (stereo not given),,4.8 µM,,,> 26.7 µM,> 5.6,inactive,,
O=c1n(C2COC(CO)O2)ccc2nc(CO)cn12 (stereo not given),10.5 µM,2 µM,,,618 µM,59,,,

# More lines, main results first:
EC90 (HepG2 [1]),EC50 (HepG2 [2]),EC50 (HepG2 [5]),EC90 (HepG2 [6]),SMILES,CC50 [3],SI [4],Activity (MT4 [7]),SI [8],Activity (MT4 [9])
10.9 µM,2.3 µM,,,O=c1n([C@H]2CO[C@@H](CO)O2)ccc2nc(-c3ccc([N+](=O)[O-])cc3)cn12,486 µM,45,,,
8.8 µM,3.7 µM,12.8 µM,25 µM,O=c1n([C@H]2CO[C@H](CO)O2)cc(F)c2nc(-c3ccc([N+](=O)[O-])cc3)cn12,587 µM,46,inactive,24,
5.9 µM,1.9 µM,7.7 µM,13.6 µM,O=c1n([C@H]2CO[C@@H](CO)O2)cc(F)c2nc(-c3ccc([N+](=O)[O-])cc3)cn12,1390 µM,180,,103,
108 µM,12.5 µM,,,O=c1n([C@H]2CO[C@H](CO)O2)ccc2nc(-c3ccc([N+](=O)[O-])cc3)cn12,517 µM,5.7,inactive,,
25.2 µM,4.2 µM,,,O=c1n(C2COC(CO)O2)ccc2nc(-c3ccc(F)cc3)cn12 (stereo not given),850 µM,34,,,
